Five compounds from patent US8465778B2, “Method of making tyrosine kinase microspheres” (Allergan, Inc., priority 2004, dated 2013) can be followed below.

Converted amounts (≈) assume the structure as drawn. Where two headings read alike, the source gives them in different places.

The nature of data set [1]: in vivo. Conditions: female, albino, rabbit.
Protocol: (§1) Vitreous humor samples (n=4 eyes per timepoint) were collected at 0.5, 1, 2, 4, 8, and 12 hr postdose. The TKI concentration in the vitreous humor was determined using a liquid chromatography tandem mass spectrometry method (LC-MS/MS).
A short description of data set [2]: In vitro TKI release from PLGA/PLA implants (Example 2). The following applies: for period of in-vitro release from implants: implants in release medium, 37° C. The class given is physicochemical. As for the experimental part:
TKI release from the implants was assessed in vitro. Implants were placed into vials containing release medium and shaken at 37° C. At the appropriate time points a sample was taken from the release medium for analysis and the medium totally replaced to maintain sink conditions. Drug in the sample was assayed by HPLC and the cumulative percent release of drug from the implant noted as a function of time. The in vitro release profiles of AGN 200954, AGN 202314, AGN 201635 and AGN 202564 are depicted in FIGS. 3 through 10, respectively.

Data set [3] can be described thus: Physicochemical properties of the TKIs (solubility, log P, log D, pKa; Tables 2, 11, 13). The following applies: for logP: n-octanol/water, Table 2; for solubility: pH 7, aqueous buffer. As for the experimental part:
Tyrosine kinase inhibitors were incorporated into PLGA or PLA implants by extrusion. The TKIs were milled with the polymers at certain ratios then extruded into filaments. These filaments were subsequently cut into implants weighing approximately 1 mg. Several TKIs were formulated in the PLGA and PLA implants based on their potencies and physicochemical properties as shown in Table 2.
We developed a new (oil in water) process for making active agent microspheres (FIG. 23). This new process for making microspheres can be used with any small molecule which is slightly soluble in water and organic solvents and which is able to preferentially crystallize in organic solvents. Such small molecules include those which have a Log P greater than or equal to four. P, the partition coefficient, is defined as the ratio of the equilibrium concentration (Ci) of a dissolved substance in a two-phase system consisting of two largely immiscible solvents, for example the ratio of n-octanol (Co) to water (Cw).
Using our new process, each of the five different TKIs shown by FIG. 24 were separately incorporated into PLGA biodegradable microspheres. In FIG. 24 the five TKIs shown are identified as follows: first (uppermost) row: 206639 and 205558; second (middle) row: 206320 and 206316, and; bottom row: 206784. The properties of these five TKIs are set forth in Table 13, where “DSC” means differential scanning calorimetry and endotherms are noted in degrees Celsius (used to determine presence of TKI crystals).

Data set [4] is described as follows: Intravitreal pharmacokinetics of TKIs in fluid compositions after a single intravitreal injection. Conditions: female, albino, rabbit, vitreous humor, other: intravitreal injection.
Protocol: as §1
Data set [5] is described as follows: In vitro release of AGN 201634 from PDLG/PDL implants in different media. In kind it is physicochemical. The protocol: TKI release was examined for implants made from poly (D,L-lactide-co-glycolide) (PDLG) or poly (D,L-lactide) (PDL) in different media with or without addition of detergent at 37° C. in a shaking water bath.
TKI release was examined in various medium, including saline, phosphate buffer saline of pH 7.4, 50 mM bicarbonate buffer of pH 6.0±0.1 with 0.1% cetyltrimethylammonium bromide (CTAB), and 50 mM borate buffer of pH 8.5±0.1 with 0.5% sodium dodecyl sulfate (SDS) in a shaking water bath (Precision) at 37° C. Sample was incubated in 10 mL of medium, and was totally replaced with fresh medium at each sampling time. Drug concentration was determined by HPLC using a Waters 2690 Separation Module equipped with a Waters XTerra RP8 column (3.9×150 mm, 5 μm, equilibrated at ambient) and a Waters 996 photodiode array detector (set at 238 nm) using 0.1% acetic acid in acetonitrile/water (40/60 by volume) as the mobile phase under a flow rate of 1.2 mL/min. The column was equilibrated with mobile phase for at least 30 min before initiating any sample injection.
The DDS was incubated in a vial of either 40 or 20 mL, and 10 mL sample solution was replaced by same volume of fresh medium, respectively, at each sampling time. The release profiles in saline and PBS were obviously different. Less than 5% of TKI was released in saline during the first 70 days. In contrast, less than 5% of AGN 201634 was released at the first 3 weeks when DDS was incubated in PBS, the same as in saline, but more than 80% of AGN 201634 was released after 70 days. […] It seems that release medium plans an important role in the variation of release profile instead of incubation volume. Due to this slow and diverged release profile, the release profile of Formulation 2 was not performed since its formulation was based on the same polymer with a lower drug loading.
For F3, more than 50%, 45%, and 75% TKI was released at the first 3, 7, and 2 weeks, when DDS was incubated in a medium of pH 6.0 (with 0.1% CTAB), 7.4 (PBS) and 8.5 (with 0.5% SDS), respectively. […]

A short description of data set [6]: Stability of AGN 201634 standard solution in DI water/acetonitrile at 4° C. The following applies: DI water/acetonitrile (75%/25%) at 4° C. In kind it is physicochemical. As for the experimental part:
The stability of AGN 201634 standard solution in deionized water/acetonitrile (75%/25%) was examined at 4° C., and the results are summarized in the following table. The concentration of standard solution was from 0.0695 μg/mL to 8.693 μg/mL, and was analyzed on day 14, 21, and 35.
Stability of AGN 201634 standard solution of various concentrations in DI water/acetonitrile (75%/25%) at 4° C. (Table 9).

Data set [7] can be described thus: Stability of TKI in Formulations 3 and 4 in media of pH 6.0, 7.4 or 8.5. In kind it is physicochemical. The protocol:
To examine the stability of TKI in formulation, Formulations 3 and 4 were prepared to various concentration in a medium of pH 6.0, 7.4 or 8.5, respectively, and subjected to an incubation condition of either 7 days under ambient condition or 14 days at 4° C., and the results are summarized in the following table.

A short description of data set [8]: In vivo pharmacokinetics of AGN 202314 intravitreal PLGA implants. Further details: species or system rabbit. The protocol:
Implants containing AGN 202314 were placed intravitreally or subconjunctivally in an eye. The implants released AGN 202314 in-vitro over a 14 day period (FIG. 3.). The intent of this study was to achieve an intravitreal in-vivo/in-vitro correlation with the intravitreal implants and assess the feasibility of periocular delivery.
Intravitreal Implants, PLGA (400 μg AGN 202314 dose, 1 mg total implant weight), were implanted by surgical incision into the mid vitreous of albino rabbits. At days 8, 15, 31 and 61 rabbits were sacrificed and the vitreous humor, lens, aqueous humor and plasma assayed for AGN 202314.

A short description of data set [9]: In vivo pharmacokinetics of AGN 202314 subconjunctival PLGA implants and PLA microspheres. Conditions: rabbit; for concentration at 8 day: Day 8. The protocol:
Subconjunctival implants, PLGA (1200 μg AGN 202314 dose; three implants) and PLA microspheres (300 μg AGN 202314) were implanted subconjunctivally. At days 8, 15, 31 and 61 rabbits were sacrificed and the vitreous humor, lens, aqueous humor and plasma assayed for AGN 202314.

Setting [10] is: Day 31, subconjunctival PLGA implants, 3 rods, total 1.2 mg AGN 202314.
[11] abbreviates: Day 61, subconjunctival PLGA implants, 3 rods, total 1.2 mg AGN 202314.

In [1], `O=C1Nc2ccccc2C1=CNc1ccc(N2CCOCC2)cc1` [AGN 199659, 3-[(4-Morpholin-4-yl-phenylamino)-methylene]-1,3-dihydro-indol-2-one] had a Vd of 0.000255 L, a clearance of 0.00387 mL/min and a half-life of 1.21 h.

Regarding `Nc1ccc2c(c1)C(=C1C(=O)Nc3ccc(Cl)cc31)OC2` [AGN 200954, 3-(6-Amino-3H-isobenzofuran-1-ylidene)-5-chloro-1,3-dihydro-indol-2-one], the “period of in-vitro release from implants” value in [2] amounted to 180 days. Further, in [3], the logP was determined as 2.21 and the solubility was 0.3 µg/mL (≈ 1 µM). Also, the clearance in [1] was 0.00433 mL/min. In data set [4], this compound had a Vd of 0.000705 L and a half-life of 2.59 h.

Take `O=C(O)CC1O/C(=C2/C(=O)Nc3cc(F)ccc32)c2ccccc21` (centres unmarked) [AGN 201634]: the “duration of controlled release in vitro” value in data set [5] (medium of pH 6.0) is given as “more than 5 months”; in data set [5] (medium of pH 7.4) it was “more than 5 months”; in data set [5] (medium of pH 8.5), “more than 4 weeks”. For the same compound, in [6], the stability of solution entry is on record as “more than 35 days”. Also, the “stability of DDS solution in various pH medium” value in [7] (4° C.) is on record as above 14 days; in [7] (ambient condition), “more than 7 days”. The same compound returned a logP in [3] of 1.25. Moreover, the solubility in [3] is 88 µg/mL (≈ 271 µM).

As for `CCN(CC)CCOc1ccc(NC=C2C(=O)Nc3cc(F)ccc32)cc1` [AGN 202314], in data set [2] (1 mg Purac PLA implants), the “period of in-vitro delivery from formulations” value is on record as “four”. In data set [2] (AGN 202314 implant), the “period of drug release in vitro” value is listed as “two”. The “period of in-vitro release from implants” value in data set [2] was determined as 14 days. Further, in data set [8] (all time points (days 8, 15, 31, 61), implants in rabbit eye), the plasma levels result is listed as “BLQ or extremely low”. Further, the “period of drug release in vivo” value in [8] (intravitreal PLGA implant, albino rabbit) is “two”. Also, the “Retina AGN 202314 concentration” value in [9] (Day 15, subconjunctival PLGA implants, 3 rods, total 1.2 mg AGN 202314) was “BLQ (BLQ: Retina and lens: <5 ng/g)”; in data set [9] (setting [10]), “BLQ (BLQ: Retina and lens: <5 ng/g)”; in data set [9] (setting [11]) it was “BLQ (BLQ: Retina and lens: <5 ng/g)”. For the same compound, the “Lens AGN 202314 concentration” value in data set [9] (setting [10]) is “BLQ (BLQ: Retina and lens: <5 ng/g)”; in data set [9] (setting [11]), “BLQ (BLQ: Retina and lens: <5 ng/g)”. The concentration at 8 day in [9] (aqueous humor, other: subconjunctival implant, subconjunctival PLGA implants, 3 rods, total 1.2 mg AGN 202314, read-out: Aqueous Humor AGN 202314 concentration) came to 6.38 ng/mL; in [9] (lens, other: subconjunctival implant, subconjunctival PLGA implants, 3 rods, total 1.2 mg AGN 202314, read-out: Lens AGN 202314 concentration) it was 229 ng/g; in data set [9] (retina, other: subconjunctival implant, subconjunctival PLGA implants, 3 rods, total 1.2 mg AGN 202314, read-out: Retina AGN 202314 concentration), 63.8 ng/g. The concentration at 15 day in data set [9] (lens, other: subconjunctival implant, Day 15, subconjunctival PLGA implants, 3 rods, total 1.2 mg AGN 202314) stood at 7.93 ng/g. In addition, the “periocular delivery to the vitreous and retina” value in data set [9] (subconjunctival implants and microspheres) is on record as “unsuccessful”. In [3], this compound displayed a pKa of 9.68. The same compound gave a logP in [3] of 3.8. For the same compound, the concentration in solution in data set [3] (solubility) was 202 µg/mL (≈ 547 µM).

Turning to `Cc1cccc2c1C(=CNc1ccc(CCN3CCCCC3)cc1)C(=O)N2` [AGN 202560], in data set [3], the pKa came to 9.65, the lipophilicity (logP) was 3.66 and the concentration in solution (solubility) came to 41 µg/mL (≈ 113 µM).

A word on the Vd: it is the apparent volume that relates the amount in the body to the concentration in plasma or blood. In general, clearance refers to the rate of elimination divided by the concentration. Higher therefore signals a high capacity for elimination. In general, half-life refers to how long it takes for the measured level to halve. A lower half-life goes with fast loss. Usually logP stands for a log measure of how a compound divides between an organic and an aqueous phase. A word on the solubility: it is the concentration that dissolves in the medium under given conditions. High values mean a readily soluble substance, low ones a poorly soluble substance. The term pKa denotes the negative logarithm of the acid dissociation constant. High values mean a weaker acid or stronger base, low ones a stronger acid or weaker base.
